Legend:
Assay type in all cases: biochemical
[1] = target: T1, DYRK1A (Homo sapiens, UniProt Q13627); assay: Inhibition test on activity of DYRK family, mobility shift assay (MSA), DYRK1A; details: ATP 100 μM, FITC-labeled DYRKtide peptide substrate, room temperature 1 hour; for IC50: read-out: Inhibitory Activity 1a (IC50 against DYRK1A)
T1 construct: purchased Carna Biosciences, Inc. 04-130
Outline: (§1)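 FITC-DYRKtide phosphorylation in 20 mM HEPES pH 7.5 with MgCl2; ATP in the substrate mix was 100 μM (DYRK1A), 200 μM (DYRK1B), 40 μM (DYRK2) or 20 μM (DYRK3). Reactions ran 1 h at room temperature; inhibition from P/(P+S) versus blank and DMSO control, IC50 by regression on log concentration.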

[2] = target: T2, DYRK2 (Homo sapiens, UniProt Q92630); assay: Inhibition test on activity of DYRK family, mobility shift assay (MSA), DYRK2; details: ATP 40 μM, FITC-labeled DYRKtide peptide substrate, room temperature 1 hour; for IC50: read-out: Inhibitory Activity 2 (IC50 against DYRK2)
T2 construct: purchased Carna Biosciences, Inc. 04-132
T2 sequence (Q92630 1-601): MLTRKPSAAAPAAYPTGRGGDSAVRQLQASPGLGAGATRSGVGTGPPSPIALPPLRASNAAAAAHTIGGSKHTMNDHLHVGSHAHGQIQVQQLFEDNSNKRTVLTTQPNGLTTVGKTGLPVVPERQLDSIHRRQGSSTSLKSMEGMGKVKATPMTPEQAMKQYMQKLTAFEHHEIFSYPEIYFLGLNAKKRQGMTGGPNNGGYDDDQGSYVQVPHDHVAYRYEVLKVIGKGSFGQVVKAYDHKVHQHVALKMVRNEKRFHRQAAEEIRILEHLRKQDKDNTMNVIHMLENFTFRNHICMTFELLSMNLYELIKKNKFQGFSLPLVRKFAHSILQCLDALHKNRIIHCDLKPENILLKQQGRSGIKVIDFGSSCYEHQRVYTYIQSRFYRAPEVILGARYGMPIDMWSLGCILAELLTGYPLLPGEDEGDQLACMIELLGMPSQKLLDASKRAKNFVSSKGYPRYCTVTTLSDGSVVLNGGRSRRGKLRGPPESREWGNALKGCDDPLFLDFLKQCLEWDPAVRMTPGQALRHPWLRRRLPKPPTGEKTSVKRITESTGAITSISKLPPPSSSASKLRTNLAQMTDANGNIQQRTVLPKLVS
Outline: as §1

[3] = target: T3, DYRK3 (Homo sapiens, UniProt O43781); assay: Inhibition test on activity of DYRK family, mobility shift assay (MSA), DYRK3; details: ATP 20 μM, FITC-labeled DYRKtide peptide substrate, room temperature 1 hour; for IC50: read-out: Inhibitory Activity 3 (IC50 against DYRK3)
T3 construct: purchased Carna Biosciences, Inc. 04-133
T3 sequence (O43781 1-588): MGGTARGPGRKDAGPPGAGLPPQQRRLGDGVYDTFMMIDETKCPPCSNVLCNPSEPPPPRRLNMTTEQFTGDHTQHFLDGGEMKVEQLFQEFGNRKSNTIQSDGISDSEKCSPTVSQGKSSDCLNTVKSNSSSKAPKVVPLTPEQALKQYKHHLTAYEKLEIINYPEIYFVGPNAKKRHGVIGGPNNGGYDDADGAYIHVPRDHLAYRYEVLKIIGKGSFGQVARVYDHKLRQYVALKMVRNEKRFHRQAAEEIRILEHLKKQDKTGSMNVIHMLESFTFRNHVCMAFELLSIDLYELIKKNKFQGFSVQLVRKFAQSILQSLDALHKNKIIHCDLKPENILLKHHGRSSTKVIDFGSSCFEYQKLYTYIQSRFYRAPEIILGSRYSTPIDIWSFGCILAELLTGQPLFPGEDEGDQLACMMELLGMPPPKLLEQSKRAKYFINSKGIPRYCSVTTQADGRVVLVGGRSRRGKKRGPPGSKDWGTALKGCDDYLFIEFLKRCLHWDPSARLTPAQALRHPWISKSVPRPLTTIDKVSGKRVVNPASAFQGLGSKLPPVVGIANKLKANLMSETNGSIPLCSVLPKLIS
Outline: as §1

Row | IC50 [1] | IC50 [2] | IC50 [3] | Inhibitory Activity 1a (IC50 against DYRK1A) [1] | Inhibitory Activity 3 (IC50 against DYRK3) [3] | Inhibitory Activity 2 (IC50 against DYRK2) [2] | SMILES
1 | 0.1 to 1 µM | ≥ 1 µM | ≥ 1 µM |  |  |  | CC#CC1CNC(=O)N1c1nc2c(ccc3ocnc32)s1 (single isomer, unassigned) [Example 53, 5-(prop-1-yn-1-yl)-1-(thiazolo[5′,4′:5,6]benz[1,2-d]oxazol-7-yl)imidazolidin-2-one]
2 |  | 0.1 to 1 µM |  | * * * | * * |  | CC#CC1CNC(=O)N1c1nc2c3c(ccc2s1)OCCO3 (single isomer, unassigned) [Example 58, 1-(7,8-dihydro-[1,4]dioxino[2′,3′:5,6]benz[1,2-d]thiazol-2-yl)-5-(prop-1-yn-1-yl)imidazolidin-2-one]
3 | 0.01 to 0.1 µM | ≥ 1 µM | ≥ 1 µM |  |  |  | CC#C[C@H]1[C@H]([C@H](C)O)NC(=O)N1c1nc2c3c(ccc2s1)OCC3 [Example 83, (4R,5S)-1-(7,8-dihydrobenzofuro[4,5-d]thiazol-2-yl)-4-((S)-1-hydroxyethyl)-5-(prop-1-yn-1-yl)imidazolidin-2-one]
4 | ≥ 1 µM | ≥ 1 µM | ≥ 1 µM |  |  |  | CC#CC1CNC(=O)N1c1nc2c3c(ccc2s1)OCCN3CCN1CCN(C)CC1 (racemic) [Example 44, (RS)-1-{9-[2-(4-methylpiperazin-1-yl)ethyl]-8,9-dihydro-7H-thiazolo[4′,5′:3,4]benz[1,2-b][1,4]oxazin-2-yl}-5-(prop-1-yn-1-yl)imidazolidin-2-one]
5 |  | ≥ 1 µM | 0.1 to 1 µM | * * * |  |  | CC#C[C@H]1[C@H](CC)NC(=O)N1c1nc2c3c(ccc2s1)OCC3 (single isomer, unassigned) [Example 71, trans-1-(7,8-dihydrobenzofuro[4,5-d]thiazol-2-yl)-4-ethyl-5-(prop-1-yn-1-yl)imidazolidin-2-one]
6 |  | 0.1 to 1 µM | 0.1 to 1 µM | * * |  |  | C#CC1CNC(=O)N1c1nc2c3c(ccc2s1)OCC3 (single isomer, unassigned) [Example 14, 1-(7,8-dihydrobenzofuro[4,5-d]thiazol-2-yl)-5-ethynylimidazolidin-2-one]
7 |  | 0.1 to 1 µM | 0.1 to 1 µM | * * * |  |  | CC#C[C@@H]1[C@H](CC)NC(=O)N1c1nc2c3c(ccc2s1)OCC3 (relative stereo) [Example 73, cis-1-(7,8-dihydrobenzofuro[4,5-d]thiazol-2-yl)-4-ethyl-5-(prop-1-yn-1-yl)imidazolidin-2-one]
8 |  | 0.1 to 1 µM | 0.1 to 1 µM | * * * |  |  | CC#CC1CNC(=O)N1c1nc2c3c(ccc2s1)OCCO3 (racemic) [Example 55, (RS)-1-(7,8-dihydro-[1,4]dioxyno[2′,3′:5,6]benzo[1,2-d]thiazol-2-yl)-5-(prop-1-yn-1-yl)imidazolidin-2-one]
9 | ≥ 1 µM | ≥ 1 µM | ≥ 1 µM |  |  |  | CC#CC1CNC(=O)N1c1nc2c3c(ccc2s1)OCCO3 (single isomer, unassigned) [Example 59, 1-(7,8-dihydro-[1,4]dioxino[2′,3′:5,6]benz[1,2-d]thiazol-2-yl)-5-(prop-1-yn-1-yl)imidazolidin-2-one]
10 |  | 0.1 to 1 µM | 0.1 to 1 µM | * * * |  |  | CC#C[C@@H]1[C@H](C)NC(=O)N1c1nc2c3c(ccc2s1)OCCO3 [Example 56, (4S,5R)-1-(7,8-dihydro-[1,4]dioxino[2′,3′:5,6]benz[1,2-d]thiazol-2-yl)-4-methyl-5-(prop-1-yn-1-yl)imidazolidin-2-one]
11 |  | 0.1 to 1 µM | 0.1 to 1 µM | * * * |  |  | CC#C[C@@H]1[C@H](CO)NC(=O)N1c1nc2c3c(ccc2s1)OCCO3 (relative stereo) [Example 64, cis-1-(7,8-dihydro-[1,4]dioxino[2′,3′:5,6]benz[1,2-d]thiazol-2-yl)-4-(hydroxymethyl)-5-(prop-1-yn-1-yl)imidazolidin-2-one]
12 |  | 0.1 to 1 µM | 0.1 to 1 µM | * * * |  |  | CC#C[C@H]1[C@H](CO)NC(=O)N1c1nc2c3c(ccc2s1)OCC3 (relative stereo) [Example 61, trans-1-(7,8-dihydrobenzofuro[4,5-d]thiazol-2-yl)-4-(hydroxymethyl)-5-(prop-1-yn-1-yl)imidazolidin-2-one]
13 |  | 0.1 to 1 µM | 0.1 to 1 µM | * * |  |  | CC#CC1CNC(=O)N1c1nc2c3c(ccc2s1)OCCN3C1CC1 (racemic) [Example 45, (RS)-1-(9-cyclopropyl-8,9-dihydro-7H-thiazolo[4′,5′:3,4]benz[1,2-b][1,4]oxazin-2-yl)-5-(prop-1-yn-1-yl)imidazolidin-2-one]
14 |  | 0.1 to 1 µM | 0.1 to 1 µM | * * * |  |  | CC#C[C@@H]1[C@H]([C@H](C)O)NC(=O)N1c1nc2c3c(ccc2s1)OCC3 [Example 84, (4R,5R)-1-(7,8-dihydrobenzofuro[4,5-d]thiazol-2-yl)-4-((S)-1-hydroxyethyl)-5-(prop-1-yn-1-yl)imidazolidin-2-one]
15 |  |  |  | * * * | * * | * * | CC#CC1CNC(=O)N1c1nc2c(ccc3ncccc32)s1 (single isomer, unassigned) [Example 34, 5-(prop-1-yn-1-yl)-1-(thiazolo[4,5-f]quinolin-2-yl)imidazolidin-2-one]
16 |  | 0.1 to 1 µM | 0.1 to 1 µM | * * |  |  | C[Si](C)(C)C#CC1CNC(=O)N1c1nc2c3c(ccc2s1)OCC3 (racemic) [Example 11, (RS)-1-(7,8-dihydrobenzofuro[4,5-d]thiazol-2-yl)-5-[(trimethylsilyl)ethynyl]imidazolidin-2-one]
17 |  |  |  | * * * | * * | * * | C#CC1CNC(=O)N1c1nc2c3c(ccc2s1)OCC3 (single isomer, unassigned) [Example 13, 1-(7,8-dihydrobenzofuro[4,5-d]thiazol-2-yl)-5-ethynylimidazolidin-2-one]
18 |  | 0.1 to 1 µM | 0.1 to 1 µM | * * * |  |  | CC#CC1CNC(=O)N1c1nc2c3c(ccc2s1)OCC(C)N3C (racemic) [Example 40, (RS)-1-((RS)-8,9-dimethyl-8,9-dihydro-7H-thiazolo[4′,5′:3,4]benz[1,2-b][1,4]oxazin-2-yl)-5-(prop-1-yn-1-yl)imidazolidin-2-one]
19 | 0.1 to 1 µM | ≥ 1 µM | ≥ 1 µM |  |  |  | O=C1NCC(C#Cc2ccccc2)N1c1nc2c3c(ccc2s1)OCC3 (racemic) [Example 15, (RS)-1-(7,8-dihydrobenzofuro[4,5-d]thiazol-2-yl)-5-(phenylethynyl)imidazolidin-2-one]
20 | 0.1 to 1 µM | ≥ 1 µM | ≥ 1 µM |  |  |  | CC#C[C@H]1[C@@H](C)NC(=O)N1c1nc2c3c(ccc2s1)OCC3 [Example 17, (4R,5S)-1-(7,8-dihydrobenzofuro[4,5-d]thiazol-2-yl)-4-methyl-5-(prop-1-yn-1-yl)imidazolidin-2-one]
21 | ≥ 1 µM | ≥ 1 µM | ≥ 1 µM |  |  |  | CC#C[C@H]1[C@H](C)NC(=O)N1c1nc2c3c(ccc2s1)OCC3 [Example 4, (4S,5S)-1-(7,8-dihydrobenzofuro[4,5-d]thiazol-2-yl)-4-methyl-5-(prop-1-yn-1-yl)imidazolidin-2-one]
